From patent US20120010148A1, “COMBINATION THERAPIES USING NAP” (ALLON THERAPEUTICS INC., priority 2008, published 2012)
“Also recorded” adds a separate entry of the source.

Tests used:
[1] = tested on: ADNP-deficient mice, triple transgenic mouse model of AD, model of frontotemporal dementia; details: in vivo; cited from earlier work
[2] = tested on: TNF-α, interleukin-16 (IL-16), and IL-12 in macrophages; details: cited from earlier work
[3] = tested on: cell cultures; details: cited from earlier work
[4] = tested on: STOP+/+ mice; test: Behavioral tests in control STOP+/+ mice; format: in vivo, mouse
Description: For the initial comparisons of STOP+/− mice to STOP+/+ mice (littermates), each experimental group included 10-12 mice, 4-12 month-old; mean age 6 months, there were no highly significant differences between the tested ages in terms of the behavioral outcome). The STOP+/+ and STOP+/− male mice received daily (5 days a week) NAP nasal application vehicle as follows below for the duration of 7-10 weeks.
The NAP vehicle solution (termed DD), included the following ingredients (per milliliter): 7.5 mg of NaCl, 1.7 mg of citric acid monohydrate, 3 mg of disodium phosphate dihydrate, and 0.2 mg of benzalkonium chloride solution (50%) (Alcalay R N et al., Neurosci Lett, 361(1-3): 128-131 (2004)). […]
Locomotor activity was measured in 5 consecutive sessions, 3 minutes each and the mean path length in cm of each mouse in the 3 minute sessions per the entire 15 minute period of observation in open field (80 cm diameter) was determined. […]
The test is based on visual discrimination between two different objects in an arena of 30 cm×40 cm. […] One hour after the daily intranasal NAP treatment, or clozapine injection, each male mouse was exposed to two identical objects for 5 minutes and the time spent sniffing/touching each object was measured (first daily session). […] The data was analyzed using two different methods. […]

[5] = tested on: model of fetal alcohol syndrome; details: in vivo, ip; cited from earlier work
[6] = tested on: closed head injury in mice; details: cited from earlier work
[7] = tested on: normal aging rats; details: intranasal administration; cited from earlier work

CC[C@H](C)[C@H](NC(=O)[C@H](CO)NC(=O)[C@@H](NC(=O)[C@@H]1CCCN1C(=O)[C@H](C)NC(=O)[C@@H](N)CC(N)=O)C(C)C)C(=O)N1CCC[C@H]1C(=O)N[C@@H](CCC(N)=O)C(=O)O [NAP]
tau hyperphosphorylation and cognitive functions [1]: reduces tau hyperphosphorylation and enhances cognitive functions | key inflammatory cytokines TNF-α, IL-16 and IL-12 [2]: downregulates | neuroprotective activity against a wide variety of toxins [3]: neuroprotective activity at femtomolar concentrations | open field locomotor activity in control mice ([4]; STOP+/+ mice, NAP intranasal 0.5 μg/mouse/day): trend; also recorded: non-significant effect | cognitive performance of control mice ([4]; control mice treated with NAP): did not show improvement in their cognitive performance | fetal death after intraperitoneal injection of alcohol [5]: inhibited | damage caused by closed head injury [6]: reduced damage | performance in the Morris water maze [7]: improved performance
